Reference: ChEMBL document CHEMBL1201862, “PubChem BioAssay data set” (2004)
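48-hour exposure; five concentrations; linearly interpolated endpoints. GI50 = concentration required for 50% inhibition of growth.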 The source made the active and inactive calls. No stated cut-off is given here; in the data, active = GI50 up to about 1.1 µM and inactive = higher.

Columns and labels:
Test in all cases: NCI tumour cell line growth inhibition, 48 h
[1] = system: 786-0
[2] = system: COLO 205
[3] = system: EKVX
[4] = system: Hs-578T
[5] = system: KM12
[6] = system: LOX IMVI
[7] = system: MCF7
[8] = system: MDA-N
[9] = system: MOLT-4
[10] = system: Malme-3M
[11] = system: OVCAR-3
[12] = system: RXF 393
[13] = system: SF-295
[14] = system: SK-OV-3
[15] = system: SN12C
[16] = system: TK-10
[17] = system: UACC-257
[18] = system: UO-31
[19] = system: NCI-H522

Measured: GI50

O=C1NCCCc2nonc21
inactive: [1] > 100 µM | [2] > 100 µM | [3] > 100 µM | [4] > 100 µM | [5] > 100 µM | [6] > 100 µM | [7] > 100 µM | [8] > 100 µM | [9] > 100 µM | [10] > 100 µM | [11] > 100 µM | [12] > 100 µM | [13] > 100 µM | [14] > 100 µM | [15] > 100 µM | [16] > 100 µM | [17] > 100 µM | [18] > 100 µM

COc1ccc(/C=C2\CCC(C)c3c2nc(N)c(C#N)c3-c2ccc(OC)c(OC)c2)cc1OC (stereo not drawn)
inactive: [1] 8.89 µM | [2] 6.56 µM | [3] 1.36 µM | [4] 9.16 µM | [5] 7.6 µM | [6] 66.4 µM | [7] 5.65 µM | [8] 33.4 µM | [9] 3.1 µM | [10] 16.5 µM | [11] 9.29 µM | [12] 4.01 µM | [13] 6 µM | [14] 18.5 µM | [15] > 100 µM | [16] 10.8 µM | [17] 1.96 µM | [18] 3.16 µM

COC1CC2C=CC3C4OC2(/C(C)=C/C(C)C(C(C)O)OC1=O)C3C(O)C(C)C4OC(=O)c1ccc[nH]1 (stereo not drawn)
inactive: [1] 94.8 µM | [2] > 100 µM | [3] 63.4 µM | [4] 94 µM | [5] 21 µM | [6] 64 µM | [7] 94.4 µM | [8] 45.5 µM | [9] 23.4 µM | [19] > 100 µM | [11] > 100 µM | [13] 30.9 µM | [15] > 100 µM | [16] > 100 µM | [17] 57.8 µM | [18] > 100 µM

N#Cc1c2c([nH]c(=O)c1C#N)CCCC2
inactive: [1] > 100 µM | [2] > 100 µM | [3] > 100 µM | [4] > 100 µM | [5] > 100 µM | [6] > 100 µM | [7] > 100 µM | [8] > 100 µM | [9] > 100 µM | [10] > 100 µM | [11] > 100 µM | [12] > 100 µM | [13] > 100 µM | [14] > 100 µM | [15] > 100 µM | [16] > 100 µM | [17] > 100 µM | [18] > 100 µM

O=C1/C(=C/Cc2ccco2)N=C(c2ccccc2)N1c1nc2ccc(Sc3ccccc3)cc2[nH]1
inactive: [1] 18 µM | [2] 18.2 µM | [3] 25.6 µM | [4] 18.9 µM | [5] 16.7 µM | [6] 18.8 µM | [7] 14 µM | [8] 6.12 µM | [9] 16.3 µM | [11] 21.9 µM | [12] 15.1 µM | [13] 29.7 µM | [14] 25.9 µM | [15] 16.1 µM | [16] 35.4 µM | [17] 17.7 µM | [18] 19.2 µM

CCOC(=O)CCCn1nnc(C(=O)OCC)c1C(=O)OCC
inactive: [1] > 100 µM | [2] > 100 µM | [3] > 100 µM | [4] > 100 µM | [5] > 100 µM | [6] > 100 µM | [7] > 100 µM | [8] > 100 µM | [9] > 100 µM | [10] > 100 µM | [12] > 100 µM | [13] > 100 µM | [15] > 100 µM | [16] > 100 µM | [17] > 100 µM | [18] > 100 µM

CC(C)(C)c1c(C(C)(C)C)c(=O)c1=O
inactive: [1] > 100 µM | [2] > 100 µM | [3] > 100 µM | [4] > 100 µM | [5] > 100 µM | [6] > 100 µM | [7] > 100 µM | [8] > 100 µM | [9] > 100 µM | [10] > 100 µM | [11] > 100 µM | [12] > 100 µM | [13] > 100 µM | [14] > 100 µM | [15] > 100 µM | [16] > 100 µM | [17] > 100 µM | [18] > 100 µM

Cc1cccc2oc3c(CC(=O)O)cccc3c(=O)c12
inactive: [1] > 100 µM | [2] > 100 µM | [3] > 100 µM | [4] > 100 µM | [5] > 100 µM | [6] > 100 µM | [7] > 100 µM | [8] > 100 µM | [9] > 100 µM | [10] > 100 µM | [19] > 100 µM | [11] > 100 µM | [13] > 100 µM | [15] > 100 µM | [16] > 100 µM | [17] > 100 µM | [18] > 100 µM
